Laboratory results published in ChEMBL document CHEMBL5038592, “Discovery of MK-8153, a Potent and Selective ROMK Inhibitor and Novel Diuretic/Natriuretic” (J Med Chem, 2021).

Tests used:
[1] = Toxicity in rat assessed as tolerance at 5 to 300 mg/kg treated for 7 days; format: organism-based; conditions: in vivo, 168 h, dose 5-300 mg/kg, time 7 day
[2] = Volume of distribution at steady state in Beagle dog at 2 mg/kg, po or 1 mg/kg, iv; format: ADME, organism-based, Canis lupus familiaris; conditions: in vivo, read-out: Vdss
[3] = Metabolic stability in human hepatocytes by LC/MS analysis; format: ADME, cell-based, Hepatocyte
[4] = Metabolic stability in Beagle dog hepatocytes by LC/MS analysis; format: ADME, cell-based, Canis lupus familiaris, Hepatocyte
[5] = Terminal half life in Beagle dog at 2 mg/kg, po or 1 mg/kg, iv; format: ADME, organism-based, Canis lupus familiaris; conditions: in vivo, read-out: beta t1/2 (converted)
[6] = Volume of distribution at steady state in rhesus monkey at 2 mg/kg, po or 1 mg/kg, iv; format: ADME, organism-based, Macaca mulatta; conditions: in vivo, read-out: Vdss
[7] = Drug metabolism in Beagle dog hepatocytes assessed as metabolite formation by LC/MS analysis; format: ADME, cell-based, Canis lupus familiaris, Hepatocyte
[8] = Terminal half life in Wistar Han rat at 2 mg/kg, po or 1 mg/kg, iv; format: ADME, organism-based; conditions: in vivo, read-out: beta t1/2 (converted)
[9] = Toxicity in rat assessed as change in body weight at 5 to 300 mg/kg treated for 7 days; format: organism-based; conditions: in vivo, 168 h, dose 5-300 mg/kg, time 7 day
Cytochrome P450 3A4 = Cytochrome P450 3A4 (Homo sapiens, UniProt P08684); test: Inhibition of CYP3A4 (unknown origin)
[10] = molecular target: T1, ATP-sensitive inward rectifier potassium channel 1 (Homo sapiens, UniProt P48048); test: Inhibition of human ROMK expressed in CHO cells by whole cell voltage clamp electrophysiology assay; format: cell-based
T1 sequence (P48048 whole entry): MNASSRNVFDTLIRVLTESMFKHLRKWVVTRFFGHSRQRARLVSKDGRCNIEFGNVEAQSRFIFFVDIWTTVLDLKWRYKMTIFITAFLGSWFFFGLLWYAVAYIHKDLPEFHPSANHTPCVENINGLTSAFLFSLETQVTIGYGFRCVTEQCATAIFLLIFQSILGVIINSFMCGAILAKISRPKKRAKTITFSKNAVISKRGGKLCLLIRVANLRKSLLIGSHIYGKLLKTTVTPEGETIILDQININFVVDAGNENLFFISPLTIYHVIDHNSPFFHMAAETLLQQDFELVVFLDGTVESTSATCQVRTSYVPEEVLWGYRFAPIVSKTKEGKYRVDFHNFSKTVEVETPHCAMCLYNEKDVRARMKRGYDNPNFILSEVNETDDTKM

[11] = Drug metabolism in rhesus monkey hepatocytes assessed as N-acetylglucosamine conjugate metabolite formation by LC/MS analysis; format: ADME, cell-based, Macaca mulatta, Hepatocyte
[12] = Clearance in Beagle dog at 2 mg/kg, po or 1 mg/kg, iv; format: ADME, organism-based, Canis lupus familiaris; conditions: in vivo
[13] = AUC (0 to infinity) in Wistar Han rat at 2 mg/kg, po or 1 mg/kg, iv; format: ADME, organism-based; parameters: dose 2 mg/kg; conditions: in vivo
[14] = Cmax in Wistar Han rat at 2 mg/kg, po or 1 mg/kg, iv; format: ADME, organism-based; parameters: dose 2 mg/kg; conditions: in vivo
Cytochrome P450 2C8 = molecular target: T2, Cytochrome P450 2C8 (Homo sapiens, UniProt P10632); test: Inhibition of CYP2C8 (unknown origin)
T2 sequence (P10632 whole entry): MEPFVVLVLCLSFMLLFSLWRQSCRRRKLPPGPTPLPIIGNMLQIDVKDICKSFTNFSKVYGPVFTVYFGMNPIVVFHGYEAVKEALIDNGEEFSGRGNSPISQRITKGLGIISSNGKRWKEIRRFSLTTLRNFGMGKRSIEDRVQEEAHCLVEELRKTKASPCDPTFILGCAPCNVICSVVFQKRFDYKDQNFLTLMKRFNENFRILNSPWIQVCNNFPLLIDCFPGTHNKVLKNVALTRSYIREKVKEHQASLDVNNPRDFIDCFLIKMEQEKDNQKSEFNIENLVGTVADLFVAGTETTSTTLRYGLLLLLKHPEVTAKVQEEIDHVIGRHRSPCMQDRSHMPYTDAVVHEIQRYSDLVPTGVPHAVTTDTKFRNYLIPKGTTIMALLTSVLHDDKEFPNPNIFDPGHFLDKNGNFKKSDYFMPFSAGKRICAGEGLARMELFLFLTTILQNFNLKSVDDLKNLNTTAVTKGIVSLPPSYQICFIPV

[15] = Effective half life in rhesus monkey at 2 mg/kg, po or 1 mg/kg, iv; format: ADME, organism-based, Macaca mulatta; conditions: in vivo, read-out: t1/2eff (converted)
[16] = Toxicity in dog assessed as tolerance at 0.3 to 6 mg/kg treated for 7 days; format: organism-based, Canis lupus familiaris; conditions: in vivo, 168 h, dose 0.3-6 mg/kg, time 7 day
[17] = Oral bioavailability in Beagle dog at 2 mg/kg; format: ADME, organism-based, Canis lupus familiaris; conditions: in vivo
[18] = Tmax in Wistar Han rat at 2 mg/kg, po or 1 mg/kg, iv; format: ADME, organism-based; conditions: in vivo

Chain of Cytochrome P450 3A4 (P08684 whole entry): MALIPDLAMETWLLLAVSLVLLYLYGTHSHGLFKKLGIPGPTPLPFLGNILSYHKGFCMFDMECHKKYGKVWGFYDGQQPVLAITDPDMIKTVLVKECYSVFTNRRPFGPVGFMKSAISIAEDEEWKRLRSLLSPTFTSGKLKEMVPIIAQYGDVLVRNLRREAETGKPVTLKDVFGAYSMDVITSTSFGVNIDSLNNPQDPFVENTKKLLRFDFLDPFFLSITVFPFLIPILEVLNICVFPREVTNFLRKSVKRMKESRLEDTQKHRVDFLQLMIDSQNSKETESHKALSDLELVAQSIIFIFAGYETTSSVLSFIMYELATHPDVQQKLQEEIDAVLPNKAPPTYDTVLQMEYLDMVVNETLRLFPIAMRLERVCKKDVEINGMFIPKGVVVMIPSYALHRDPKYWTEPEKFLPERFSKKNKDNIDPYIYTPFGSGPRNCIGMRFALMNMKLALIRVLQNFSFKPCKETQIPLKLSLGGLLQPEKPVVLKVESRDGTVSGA

- Vd [2]: 5.2 L/kg
- Stability [3]: Stable
- Stability [4]: Stable
- half-life [5]: 546 min
- Vd [6]: 7.9 L/kg
- Drug metabolism [7]: Metabolite_Notdetected
- half-life [8]: 216 min
- IC50 (Cytochrome P450 3A4): > 50 µM
- IC50 [10]: 5 nM
- Drug metabolism [11]: Metabolite_Detected
- clearance [12]: 8.7 mL/min/kg
- AUC(0-inf) [13]: 1.4 µM·h
- Cmax [14]: 310 nM
- IC50 (Cytochrome P450 2C8): > 50 µM
- half-life [15]: 108 min
- bioavailability [17]: 100%
- Tmax [18]: 30 min
SMILES: CC1=C(N2CCC3(CCN(C[C@H](O)c4ccc5c(c4C)COC5=O)CC3)C2=O)COC1=O
- Activity [1]: Non-Toxic
- Activity [9]: Non-Toxic
- Activity [16]: Non-Toxic
